According to ChEMBL document CHEMBL1126401, “New potent enkephalin analogs containing trifluoromethylamino acid residues” (Bioorg Med Chem Lett, 1992):
*1 amine or outer side, *2 acyl side, *3 side chain or, on linkers, in order; H or OH if unused. Where a SMILES comes first, the peptide text is derived from it. [ ]: non-standard residue; d: D form. Nva(5,5,5-F3) = N[C@@H](CCC(F)(F)F)C(=O)O; X1 = O=C([C@@H](CCC(F)(F)F)N[*:1])[*:2]; X2 = O=C([C@H](CCCC(F)(F)F)N[*:1])[*:2]; NMeF = CN[C@@H](Cc1ccccc1)C(=O)O

Key:
[1] = test system: Mus musculus; test: In vivo analgesic activity of fluoro-enkephalin analog was determined against the compound at 10E-9 M/mouse; i.c.v.; format: functional
[2] = molecular target: Kappa-type opioid receptor (Cavia porcellus, UniProt P41144); test: Compound was evaluated for its binding affinity against enkephalin kappa receptor using [3H]U-69593 as ligand in guinea pig cerebrum in vitro
Chain of Kappa-type opioid receptor (P41144 whole entry): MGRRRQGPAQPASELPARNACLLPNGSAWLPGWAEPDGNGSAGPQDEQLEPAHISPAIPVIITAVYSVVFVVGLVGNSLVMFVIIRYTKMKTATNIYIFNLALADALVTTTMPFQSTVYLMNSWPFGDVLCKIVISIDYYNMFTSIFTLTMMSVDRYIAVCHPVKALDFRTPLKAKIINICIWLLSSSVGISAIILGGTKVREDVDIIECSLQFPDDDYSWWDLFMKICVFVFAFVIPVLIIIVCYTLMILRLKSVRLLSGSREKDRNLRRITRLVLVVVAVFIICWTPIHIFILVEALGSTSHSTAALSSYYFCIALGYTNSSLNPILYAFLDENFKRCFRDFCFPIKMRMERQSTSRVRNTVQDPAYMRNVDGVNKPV

[3] = molecular target: Mu-type opioid receptor (Rattus norvegicus, UniProt P33535); test: Compound was evaluated for its binding affinity against enkephalin mu receptor using [3H]PL-017 as ligand in rat cerebrum in vitro
Chain of Mu-type opioid receptor (P33535 whole entry): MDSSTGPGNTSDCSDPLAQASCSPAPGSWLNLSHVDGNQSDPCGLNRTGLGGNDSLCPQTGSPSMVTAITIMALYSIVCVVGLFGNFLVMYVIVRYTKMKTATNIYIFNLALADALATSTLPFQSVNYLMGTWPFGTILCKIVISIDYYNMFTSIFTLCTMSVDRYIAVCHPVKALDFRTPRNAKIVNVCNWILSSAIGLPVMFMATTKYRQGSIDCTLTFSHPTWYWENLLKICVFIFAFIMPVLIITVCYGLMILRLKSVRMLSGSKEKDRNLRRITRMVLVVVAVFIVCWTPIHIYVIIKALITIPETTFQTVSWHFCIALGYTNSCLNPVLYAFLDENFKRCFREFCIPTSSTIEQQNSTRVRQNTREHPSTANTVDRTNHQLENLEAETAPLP

[4] = molecular target: Delta-type opioid receptor (Rattus norvegicus, UniProt P33533); test: Compound was evaluated for its binding affinity against enkephalin delta receptor using [3H]DPDPE as ligand in rat cerebrum in vitro
Chain of Delta-type opioid receptor (P33533 whole entry): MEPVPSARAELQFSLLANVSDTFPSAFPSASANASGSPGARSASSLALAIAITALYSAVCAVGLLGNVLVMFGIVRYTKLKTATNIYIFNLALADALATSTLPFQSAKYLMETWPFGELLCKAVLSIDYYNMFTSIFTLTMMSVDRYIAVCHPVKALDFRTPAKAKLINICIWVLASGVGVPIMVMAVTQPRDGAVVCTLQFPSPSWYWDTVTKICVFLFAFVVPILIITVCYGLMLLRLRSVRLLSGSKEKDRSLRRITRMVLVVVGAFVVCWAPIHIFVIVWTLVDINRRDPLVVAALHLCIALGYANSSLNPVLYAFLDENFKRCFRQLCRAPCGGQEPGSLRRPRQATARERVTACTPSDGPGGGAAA

Compound: CSCC[C@H](NC(=O)[C@H](Cc1ccccc1)NC(=O)CNC(=O)CNC(=O)[C@@H](N)Cc1ccc(O)cc1)C(=O)O
- ED50 [1]: 7e-07 M mouse-1

Compound: CCC[C@@H](NC(=O)[C@@H](N)Cc1ccc(O)cc1)C(=O)NCC(=O)N[C@@H](Cc1ccccc1)C(=O)N[C@@H](CCSC)C(N)=O
- ED50 [1]: 4e-11 M mouse-1

Compound: CSCC[C@H](NC(=O)[C@H](Cc1ccccc1)NC(=O)[C@H](CCC(F)(F)F)NC(=O)CNC(=O)[C@@H](N)Cc1ccc(O)cc1)C(N)=O (H-YG[Nva(5,5,5-F3)]FM-NH2)
- ED50 [1]: 2.2e-08 M mouse-1

Compound: CSCC[C@H](NC(=O)[C@H](Cc1ccccc1)NC(=O)[C@H](CCC(F)(F)F)NC(=O)CNC(=O)[C@@H](N)Cc1ccc(O)cc1)C(=O)O (H-YG[Nva(5,5,5-F3)]FM-OH)
- ED50 [1]: 1.4e-07 M mouse-1

Compound: CSCC[C@H](NC(=O)[C@H](Cc1ccccc1)NC(=O)[C@@H](CCC(F)(F)F)NC(=O)CNC(=O)[C@@H](N)Cc1ccc(O)cc1)C(N)=O (H-YG[X1]FM-NH2)
- ED50 [1]: 1.2e-08 M mouse-1

Compound: CSCC[C@H](NC(=O)[C@H](Cc1ccccc1)NC(=O)CNC(=O)[C@H](CCC(F)(F)F)NC(=O)[C@@H](N)Cc1ccc(O)cc1)C(N)=O (H-Y[Nva(5,5,5-F3)]GFM-NH2)
- IC50 [2]: 400 nM
- IC50 [3]: 0.5 nM
- IC50 [4]: 2 nM
- ED50 [1]: 7e-12 M mouse-1

Compound: CSCC[C@H](NC(=O)[C@H](Cc1ccccc1)N(C)C(=O)CNC(=O)[C@H](CCC(F)(F)F)NC(=O)[C@@H](N)Cc1ccc(O)cc1)C(N)=O (H-Y[Nva(5,5,5-F3)]G[NMeF]M-NH2)
- ED50 [1]: 2e-12 M mouse-1

Compound: CSCC[C@H](NC(=O)[C@H](Cc1ccccc1)NC(=O)CNC(=O)[C@@H](CCC(F)(F)F)NC(=O)[C@@H](N)Cc1ccc(O)cc1)C(N)=O (H-Y[X1]GFM-NH2)
- ED50 [1]: 2.5e-08 M mouse-1

Compound: CSCC[C@H](NC(=O)[C@H](Cc1ccccc1)NC(=O)CNC(=O)[C@@H](CCC(F)(F)F)NC(=O)[C@@H](N)Cc1ccc(O)cc1)C(=O)O (H-Y[X1]GFM-OH)
- ED50 [1]: 1.2e-07 M mouse-1

Compound: CSCC[C@H](NC(=O)[C@H](Cc1ccccc1)NC(=O)CNC(=O)[C@H](CCCC(F)(F)F)NC(=O)[C@@H](N)Cc1ccc(O)cc1)C(N)=O (H-Y[X2]GFM-NH2)
- ED50 [1]: 7e-11 M mouse-1

Compound: CN1CC[C@]2(C)CC(Cc3ccc(O)cc32)C1 (single isomer, unassigned) [EPTAZOCINE]
- ED50 [1]: 5e-11 M mouse-1

Compound: CN1CC[C@]23c4c5ccc(O)c4O[C@H]2[C@@H](O)C=C[C@H]3[C@H]1C5.Cl [MORPHINE HYDROCHLORIDE]
- ED50 [1]: 7e-11 M mouse-1
